US20100267561A1, “HERBICIDAL PYRIDAZINONE DERIVATIVES” (priority 2007, published 2010)

Assays:
Assay in all cases: Test B pre-/postemergence plant response
Type in all cases: in vivo
[1] = tested on: downy bromegrass (Bromus tectorum); conditions: for Bromegrass, Downy plant response rating: 8 g ai/ha
Method in brief: (§1)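 Preemergence and postemergence (plants 2-18 cm, 1- to 4-leaf stage) applications used test chemicals in a non-phytotoxic solvent with surfactant. Plants were held in a greenhouse 13 to 15 days, then rated visually against controls on a 0-100 scale (0 no effect, 100 complete control).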

[2] = tested on: woolly cupgrass (Eriochloa villosa)
Method in brief: as §1

[3] = tested on: common ragweed (Ambrosia elation)
Method in brief: as §1

[4] = tested on: yellow nutsedge (Cyperus esculentus)
Method in brief: as §1

corn (Zea mays) = tested on: corn (Zea mays)
Method in brief: as §1

[5] = tested on: catchweed bedstraw (Galium aparine); conditions: Preemergence; for Galium plant response rating: scale 0 to 100
Method in brief: as §1

kochia (Kochia scoparia) = conditions: for Kochia plant response rating: postemergence, 0-100 scale; for Plant response rating, Kochia: Postemergence
Method in brief: as §1

[6] = tested on: blackgrass (Alopecurus myosuroides); conditions: for Blackgrass plant response rating: 8 g ai/ha
Method in brief: as §1

wild oat (Avena fatua) = tested on: wild oat (Avena fatua)
Method in brief: as §1

[7] = tested on: pigweed (Amaranthus retroflexus)
Method in brief: as §1

[8] = tested on: lambsquarters (Chenopodium album)
Method in brief: as §1

[9] = tested on: common (oilseed) sunflower (Helianthus annuus); conditions: Preemergence; for Sunflower plant response rating: scale 0 to 100
Method in brief: as §1

[10] = tested on: giant foxtail (Setaria faberii)
Method in brief: as §1

[11] = tested on: velvetleaf (Abutilon theophrasti)
Method in brief: as §1

[12] = Postemergence, 16 g ai/ha, scale 0 to 100
[13] = Postemergence, 31 g ai/ha, scale 0 to 100
[14] = Postemergence, 62 g ai/ha, scale 0 to 100, 0 no effect, 100 complete control
[15] = Preemergence, 16 g ai/ha, scale 0 to 100 (0 no effect, 100 complete control)
[16] = Preemergence, 31 g ai/ha, scale 0 to 100 (0 no effect, 100 complete control)
[17] = Preemergence, 62 g ai/ha, 0 to 100 scale, 0 no effect, 100 complete control
[18] = 8 g ai/ha, postemergence, 0-100 scale
[19] = Preemergence, 8 g ai/ha, scale 0 to 100
[20] = Preemergence, 16 g ai/ha, scale 0 to 100
[21] = 16 g ai/ha, postemergence, 0-100 scale
[22] = 31 g ai/ha, scale 0 to 100 (0 no effect, 100 complete control)
[23] = 62 g ai/ha, 0 to 100 scale, 0 no effect, 100 complete control
[24] = 62 g ai/ha, scale 0 to 100, 0 no effect, 100 complete control

CCc1cc(-c2ccc(C(F)(F)F)cc2)nn1-c1c(O)c(OC)nn(C)c1=O [Compound 66]
Bromegrass, Downy plant response rating ([1]; postemergence, 0-100 scale): 80 | Plant response rating, Bromegrass, Downy [1, 12]: 95 | Plant response rating, Bromegrass, Downy [1, 13]: 98 | Plant response rating, Bromegrass, Downy [1, 14]: 98 | Plant response rating, Bromegrass, Downy [1, 15]: 85 | Plant response rating, Bromegrass, Downy [1, 16]: 100 | Plant response rating, Bromegrass, Downy [1, 17]: 100 | Bromegrass, Downy plant response rating ([1]; Preemergence, scale 0 to 100): 85 | Cupgrass, Woolly plant response rating [2, 18]: 90 | Plant response rating, Cupgrass, Woolly [2, 12]: 95 | Plant response rating, Cupgrass, Woolly [2, 13]: 100 | Plant response rating, Cupgrass, Woolly [2, 14]: 100 | Plant response rating, Cupgrass, Woolly [2, 16]: 90 | Plant response rating, Cupgrass, Woolly [2, 17]: 98 | Cupgrass, Woolly plant response rating [2, 19]: 0 | Cupgrass, Woolly plant response rating [2, 20]: 80 | Ragweed plant response rating [3, 18]: 0 | Ragweed plant response rating [3, 21]: 0 | Plant response rating, Ragweed [3, 13]: 0 | Plant response rating, Ragweed [3, 14]: 0 | Plant response rating, Ragweed [3, 17]: 0 | Ragweed plant response rating [3, 19]: 0 | Ragweed plant response rating [3, 20]: 0 | Nutsedge, Yellow plant response rating [4, 18]: 0 | Nutsedge, Yellow plant response rating [4, 21]: 0 | Plant response rating, Nutsedge, Yellow [4, 13]: 0 | Plant response rating, Nutsedge, Yellow [4, 14]: 0 | Plant response rating, Nutsedge, Yellow [4, 16]: 0 | Plant response rating, Nutsedge, Yellow [4, 17]: 100 | Nutsedge, Yellow plant response rating [4, 19]: 0 | Nutsedge, Yellow plant response rating [4, 20]: 0 | Corn plant response rating (corn (Zea mays); [18]): 65 | Plant response rating, Corn (corn (Zea mays); [12]): 75 | Plant response rating, Corn (corn (Zea mays); [13]): 90 | Plant response rating, Corn (corn (Zea mays); [14]): 100 | Plant response rating, Corn (corn (Zea mays); [16]): 98 | Plant response rating, Corn (corn (Zea mays); [17]): 100 | Corn plant response rating (corn (Zea mays); [19]): 0 | Corn plant response rating (corn (Zea mays); [20]): 70 | Plant response rating, Galium [5, 22]: 0 | Plant response rating, Galium [5, 23]: 0 | Galium plant response rating ([5]; 8 g ai/ha): 0 | Galium plant response rating ([5]; 16 g ai/ha): 0 | Kochia plant response rating (kochia (Kochia scoparia); 8 g ai/ha): 0 | Kochia plant response rating (kochia (Kochia scoparia); 16 g ai/ha): 0 | Plant response rating, Kochia (kochia (Kochia scoparia); 31 g ai/ha, scale 0 to 100): 0 | Plant response rating, Kochia (kochia (Kochia scoparia); [24]): 0 | Blackgrass plant response rating ([6]; postemergence, 0-100 scale): 90 | Plant response rating, Blackgrass [6, 12]: 100 | Plant response rating, Blackgrass [6, 13]: 100 | Plant response rating, Blackgrass [6, 14]: 100 | Plant response rating, Blackgrass [6, 15]: 100 | Plant response rating, Blackgrass [6, 16]: 100 | Plant response rating, Blackgrass [6, 17]: 100 | Blackgrass plant response rating ([6]; Preemergence, scale 0 to 100): 90 | Oat, Wild plant response rating (wild oat (Avena fatua); [18]): 95 | Oat, Wild plant response rating (wild oat (Avena fatua); [21]): 100 | Plant response rating, Oat, Wild (wild oat (Avena fatua); [13]): 100 | Plant response rating, Oat, Wild (wild oat (Avena fatua); [14]): 100 | Plant response rating, Oat, Wild (wild oat (Avena fatua); [16]): 95 | Plant response rating, Oat, Wild (wild oat (Avena fatua); [17]): 100 | Oat, Wild plant response rating (wild oat (Avena fatua); [19]): 90 | Oat, Wild plant response rating (wild oat (Avena fatua); [20]): 95 | Pigweed plant response rating [7, 18]: 0 | Pigweed plant response rating [7, 21]: 0 | Plant response rating, Pigweed [7, 13]: 0 | Plant response rating, Pigweed [7, 14]: 0 | Plant response rating, Pigweed [7, 16]: 0 | Plant response rating, Pigweed [7, 17]: 95 | Pigweed plant response rating [7, 19]: 0 | Pigweed plant response rating [7, 20]: 0 | Lambsquarters plant response rating [8, 18]: 0 | Lambsquarters plant response rating [8, 21]: 0 | Plant response rating, Lambsquarters [8, 13]: 0 | Plant response rating, Lambsquarters [8, 14]: 0 | Plant response rating, Sunflower [9, 22]: 0 | Plant response rating, Sunflower [9, 23]: 0 | Sunflower plant response rating ([9]; 8 g ai/ha): 0 | Sunflower plant response rating ([9]; 16 g ai/ha): 0 | Foxtail, Giant plant response rating [10, 18]: 85 | Plant response rating, Foxtail, Giant [10, 12]: 98 | Plant response rating, Foxtail, Giant [10, 13]: 100 | Plant response rating, Foxtail, Giant [10, 14]: 100 | Plant response rating, Foxtail, Giant [10, 16]: 95 | Plant response rating, Foxtail, Giant [10, 17]: 95 | Foxtail, Giant plant response rating [10, 19]: 0 | Foxtail, Giant plant response rating [10, 20]: 45 | Velvetleaf plant response rating [11, 18]: 0 | Velvetleaf plant response rating [11, 21]: 0 | Plant response rating, Velvetleaf [11, 13]: 0 | Plant response rating, Velvetleaf [11, 14]: 0 | Plant response rating, Velvetleaf [11, 16]: 0 | Plant response rating, Velvetleaf [11, 17]: 0 | Velvetleaf plant response rating [11, 19]: 0 | Velvetleaf plant response rating [11, 20]: 0

CCc1cc(-c2ccc(Br)cc2)nn1-c1c(O)c(C)nn(C)c1=O [Compound 74]
Bromegrass, Downy plant response rating ([1]; postemergence, 0-100 scale): 10 | Plant response rating, Bromegrass, Downy [1, 12]: 40 | Plant response rating, Bromegrass, Downy [1, 13]: 50 | Plant response rating, Bromegrass, Downy [1, 14]: 60 | Plant response rating, Bromegrass, Downy [1, 15]: 85 | Plant response rating, Bromegrass, Downy [1, 16]: 85 | Plant response rating, Bromegrass, Downy [1, 17]: 85 | Bromegrass, Downy plant response rating ([1]; Preemergence, scale 0 to 100): 30 | Cupgrass, Woolly plant response rating [2, 18]: 85 | Plant response rating, Cupgrass, Woolly [2, 12]: 90 | Plant response rating, Cupgrass, Woolly [2, 13]: 90 | Plant response rating, Cupgrass, Woolly [2, 14]: 98 | Plant response rating, Cupgrass, Woolly [2, 16]: 98 | Plant response rating, Cupgrass, Woolly [2, 17]: 100 | Cupgrass, Woolly plant response rating [2, 19]: 65 | Cupgrass, Woolly plant response rating [2, 20]: 95 | Ragweed plant response rating [3, 18]: 0 | Ragweed plant response rating [3, 21]: 0 | Plant response rating, Ragweed [3, 13]: 0 | Plant response rating, Ragweed [3, 14]: 0 | Plant response rating, Ragweed [3, 16]: 0 | Plant response rating, Ragweed [3, 17]: 0 | Ragweed plant response rating [3, 19]: 0 | Ragweed plant response rating [3, 20]: 0 | Nutsedge, Yellow plant response rating [4, 18]: 0 | Nutsedge, Yellow plant response rating [4, 21]: 0 | Plant response rating, Nutsedge, Yellow [4, 13]: 0 | Plant response rating, Nutsedge, Yellow [4, 14]: 0 | Plant response rating, Nutsedge, Yellow [4, 16]: 0 | Plant response rating, Nutsedge, Yellow [4, 17]: 0 | Nutsedge, Yellow plant response rating [4, 19]: 0 | Nutsedge, Yellow plant response rating [4, 20]: 0 | Corn plant response rating (corn (Zea mays); [18]): 98 | Plant response rating, Corn (corn (Zea mays); [12]): 100 | Plant response rating, Corn (corn (Zea mays); [13]): 100 | Plant response rating, Corn (corn (Zea mays); [14]): 100 | Plant response rating, Corn (corn (Zea mays); [16]): 90 | Plant response rating, Corn (corn (Zea mays); [17]): 98 | Corn plant response rating (corn (Zea mays); [19]): 75 | Corn plant response rating (corn (Zea mays); [20]): 80 | Plant response rating, Galium [5, 22]: 0 | Plant response rating, Galium [5, 23]: 0 | Galium plant response rating ([5]; 8 g ai/ha): 0 | Galium plant response rating ([5]; 16 g ai/ha): 0 | Kochia plant response rating (kochia (Kochia scoparia); 8 g ai/ha): 0 | Kochia plant response rating (kochia (Kochia scoparia); 16 g ai/ha): 0 | Plant response rating, Kochia (kochia (Kochia scoparia); 31 g ai/ha, scale 0 to 100): 0 | Plant response rating, Kochia (kochia (Kochia scoparia); [24]): 0 | Blackgrass plant response rating ([6]; postemergence, 0-100 scale): 90 | Plant response rating, Blackgrass [6, 12]: 95 | Plant response rating, Blackgrass [6, 13]: 98 | Plant response rating, Blackgrass [6, 14]: 100 | Plant response rating, Blackgrass [6, 15]: 100 | Plant response rating, Blackgrass [6, 16]: 100 | Plant response rating, Blackgrass [6, 17]: 100 | Blackgrass plant response rating ([6]; Preemergence, scale 0 to 100): 85 | Oat, Wild plant response rating (wild oat (Avena fatua); [18]): 98 | Oat, Wild plant response rating (wild oat (Avena fatua); [21]): 98 | Plant response rating, Oat, Wild (wild oat (Avena fatua); [13]): 100 | Plant response rating, Oat, Wild (wild oat (Avena fatua); [14]): 100 | Plant response rating, Oat, Wild (wild oat (Avena fatua); [16]): 70 | Plant response rating, Oat, Wild (wild oat (Avena fatua); [17]): 80 | Oat, Wild plant response rating (wild oat (Avena fatua); [19]): 50 | Oat, Wild plant response rating (wild oat (Avena fatua); [20]): 70 | Pigweed plant response rating [7, 18]: 0 | Pigweed plant response rating [7, 21]: 0 | Plant response rating, Pigweed [7, 13]: 0 | Plant response rating, Pigweed [7, 14]: 0 | Plant response rating, Pigweed [7, 16]: 0 | Plant response rating, Pigweed [7, 17]: 20 | Pigweed plant response rating [7, 19]: 0 | Pigweed plant response rating [7, 20]: 0 | Lambsquarters plant response rating [8, 18]: 0 | Lambsquarters plant response rating [8, 21]: 0 | Plant response rating, Lambsquarters [8, 13]: 0 | Plant response rating, Lambsquarters [8, 14]: 0 | Plant response rating, Lambsquarters [8, 16]: 0 | Plant response rating, Lambsquarters [8, 17]: 20 | Lambsquarters plant response rating [8, 19]: 0 | Lambsquarters plant response rating [8, 20]: 0 | Plant response rating, Sunflower [9, 22]: 0 | Plant response rating, Sunflower [9, 23]: 0 | Sunflower plant response rating ([9]; 8 g ai/ha): 0 | Sunflower plant response rating ([9]; 16 g ai/ha): 0 | Foxtail, Giant plant response rating [10, 18]: 80 | Plant response rating, Foxtail, Giant [10, 12]: 85 | Plant response rating, Foxtail, Giant [10, 13]: 95 | Plant response rating, Foxtail, Giant [10, 14]: 98 | Plant response rating, Foxtail, Giant [10, 16]: 100 | Plant response rating, Foxtail, Giant [10, 17]: 100 | Foxtail, Giant plant response rating [10, 19]: 80 | Foxtail, Giant plant response rating [10, 20]: 98 | Velvetleaf plant response rating [11, 18]: 0 | Velvetleaf plant response rating [11, 21]: 0 | Plant response rating, Velvetleaf [11, 13]: 0 | Plant response rating, Velvetleaf [11, 14]: 0 | Plant response rating, Velvetleaf [11, 16]: 0 | Plant response rating, Velvetleaf [11, 17]: 0 | Velvetleaf plant response rating [11, 19]: 0 | Velvetleaf plant response rating [11, 20]: 0
